Results: patent publication US20030118577A1, “Use of analogues of superoxide dismutase for treating hepatocellular insufficiencies” (priority 2000, published 2003)

Tested on: acute hepatic insufficiency induced by acetaminophen
Test: Survival of mice after intraperitoneal acetaminophen (acute hepatic insufficiency)
Method: The intraperitoneal injection of acetaminophen into mice induces a severe hepatotoxicity, the degree of which may be evaluated by the survival of the animals, measuring transaminase activities, and macroscopic and microscopic examination of the livers.
The acetaminophen in solution at 100 mg/ml in PBS at pH 7.4 is administered by the intraperitoneal route.
In a first series of experiments, a group of mice received a dose of 1000 mg/kg of acetaminophen; a second group received a dose of 1000 mg/kg of acetaminophen and a dose of 10 mg/kg of MnTBAP administered either 2 h before the acetaminophen or 6 h after; a control group received either MnTBAP alone (10 mg/kg), or PBS alone.
The survival of the animals is monitored for 24 hours after the administration of acetaminophen.
The effect of N-acetyl-L-cysteine (NAC), of CuDIPS, and of MnTBAP on the survival of mice after intraperitoneal injection of 1000 mg/kg of acetaminophen (APAP) was compared.
MnTBAP, NAC, or CuDIPS are administered in the form of a bolus, preventively, 2 hours before (P) or, curatively, 6 hours after (C) the acetaminophen.
The survival of the animals is monitored for 24 hours after administration of acetaminophen.

CC(=O)N[C@@H](CS)C(=O)O [NAC, N-acetyl-L-cysteine]
50%: percentage of surviving animals (Group X: APAP 1000 mg/kg, NAC 100 mg/kg (P), time 18 h) | percentage of surviving animals (Group XIII: APAP 1000 mg/kg, NAC 100 mg/kg (C), time 11 h) | percentage of surviving animals (Group XIII: APAP 1000 mg/kg, NAC 100 mg/kg (C), time 12 h)
20%: percentage of surviving animals (Group XIII: APAP 1000 mg/kg, NAC 100 mg/kg (C), time 15 h) | percentage of surviving animals (Group XIII: APAP 1000 mg/kg, NAC 100 mg/kg (C), time 16 h) | percentage of surviving animals (Group XIII: APAP 1000 mg/kg, NAC 100 mg/kg (C), time 17 h) | percentage of surviving animals (Group XIV: APAP 1000 mg/kg, NAC 300 mg/kg (C), time 20 h) | percentage of surviving animals (Group XIV: APAP 1000 mg/kg, NAC 300 mg/kg (C), time 22 h) | percentage of surviving animals (Group XIV: APAP 1000 mg/kg, NAC 300 mg/kg (C), time 24 h)
30%: percentage of surviving animals (Group XIII: APAP 1000 mg/kg, NAC 100 mg/kg (C), time 14 h) | percentage of surviving animals (Group XIV: APAP 1000 mg/kg, NAC 300 mg/kg (C), time 16 h) | percentage of surviving animals (Group XIV: APAP 1000 mg/kg, NAC 300 mg/kg (C), time 17 h) | percentage of surviving animals (Group XIV: APAP 1000 mg/kg, NAC 300 mg/kg (C), time 18 h)
100%: percentage of surviving animals (Group X: APAP 1000 mg/kg, NAC 100 mg/kg (P), time 0 h) | percentage of surviving animals (Group X: APAP 1000 mg/kg, NAC 100 mg/kg (P), time 6 h) | percentage of surviving animals (Group X: APAP 1000 mg/kg, NAC 100 mg/kg (P), time 8 h) | percentage of surviving animals (Group X: APAP 1000 mg/kg, NAC 100 mg/kg (P), time 9 h) | percentage of surviving animals (Group X: APAP 1000 mg/kg, NAC 100 mg/kg (P), time 10 h) | percentage of surviving animals (Group X: APAP 1000 mg/kg, NAC 100 mg/kg (P), time 11 h) | percentage of surviving animals (Group X: APAP 1000 mg/kg, NAC 100 mg/kg (P), time 12 h) | percentage of surviving animals (Group X: APAP 1000 mg/kg, NAC 100 mg/kg (P), time 13 h) | percentage of surviving animals (Group XI: APAP 1000 mg/kg, NAC 200 mg/kg (P), time 0 h) | percentage of surviving animals (Group XI: APAP 1000 mg/kg, NAC 200 mg/kg (P), time 6 h) | percentage of surviving animals (Group XI: APAP 1000 mg/kg, NAC 200 mg/kg (P), time 8 h) | percentage of surviving animals (Group XI: APAP 1000 mg/kg, NAC 200 mg/kg (P), time 9 h) | percentage of surviving animals (Group XI: APAP 1000 mg/kg, NAC 200 mg/kg (P), time 10 h) | percentage of surviving animals (Group XII: APAP 1000 mg/kg, NAC 300 mg/kg (P), time 0 h) | percentage of surviving animals (Group XII: APAP 1000 mg/kg, NAC 300 mg/kg (P), time 6 h) | percentage of surviving animals (Group XII: APAP 1000 mg/kg, NAC 300 mg/kg (P), time 8 h) | percentage of surviving animals (Group XIII: APAP 1000 mg/kg, NAC 100 mg/kg (C), time 0 h) | percentage of surviving animals (Group XIII: APAP 1000 mg/kg, NAC 100 mg/kg (C), time 6 h) | percentage of surviving animals (Group XIV: APAP 1000 mg/kg, NAC 300 mg/kg (C), time 0 h) | percentage of surviving animals (Group XIV: APAP 1000 mg/kg, NAC 300 mg/kg (C), time 6 h) | percentage of surviving animals (Group XIV: APAP 1000 mg/kg, NAC 300 mg/kg (C), time 8 h)
10%: percentage of surviving animals (Group XIII: APAP 1000 mg/kg, NAC 100 mg/kg (C), time 18 h) | percentage of surviving animals (Group XIII: APAP 1000 mg/kg, NAC 100 mg/kg (C), time 20 h) | percentage of surviving animals (Group XIII: APAP 1000 mg/kg, NAC 100 mg/kg (C), time 22 h) | percentage of surviving animals (Group XIII: APAP 1000 mg/kg, NAC 100 mg/kg (C), time 24 h)
only active preventively: activity on survival, curative versus preventive administration (APAP 1000 mg/kg, 6 hours after (C) or 2 hours before (P))
80%: percentage of surviving animals (Group X: APAP 1000 mg/kg, NAC 100 mg/kg (P), time 15 h) | percentage of surviving animals (Group XI: APAP 1000 mg/kg, NAC 200 mg/kg (P), time 16 h) | percentage of surviving animals (Group XI: APAP 1000 mg/kg, NAC 200 mg/kg (P), time 17 h) | percentage of surviving animals (Group XII: APAP 1000 mg/kg, NAC 300 mg/kg (P), time 18 h) | percentage of surviving animals (Group XII: APAP 1000 mg/kg, NAC 300 mg/kg (P), time 20 h) | percentage of surviving animals (Group XII: APAP 1000 mg/kg, NAC 300 mg/kg (P), time 22 h) | percentage of surviving animals (Group XII: APAP 1000 mg/kg, NAC 300 mg/kg (P), time 24 h) | percentage of surviving animals (Group XIII: APAP 1000 mg/kg, NAC 100 mg/kg (C), time 9 h) | percentage of surviving animals (Group XIV: APAP 1000 mg/kg, NAC 300 mg/kg (C), time 10 h) | percentage of surviving animals (Group XIV: APAP 1000 mg/kg, NAC 300 mg/kg (C), time 11 h)
60%: percentage of surviving animals (Group X: APAP 1000 mg/kg, NAC 100 mg/kg (P), time 16 h) | percentage of surviving animals (Group X: APAP 1000 mg/kg, NAC 100 mg/kg (P), time 17 h) | percentage of surviving animals (Group XI: APAP 1000 mg/kg, NAC 200 mg/kg (P), time 18 h) | percentage of surviving animals (Group XI: APAP 1000 mg/kg, NAC 200 mg/kg (P), time 20 h) | percentage of surviving animals (Group XI: APAP 1000 mg/kg, NAC 200 mg/kg (P), time 22 h) | percentage of surviving animals (Group XI: APAP 1000 mg/kg, NAC 200 mg/kg (P), time 24 h) | percentage of surviving animals (Group XIII: APAP 1000 mg/kg, NAC 100 mg/kg (C), time 10 h) | percentage of surviving animals (Group XIV: APAP 1000 mg/kg, NAC 300 mg/kg (C), time 12 h)
40%: percentage of surviving animals (Group X: APAP 1000 mg/kg, NAC 100 mg/kg (P), time 20 h) | percentage of surviving animals (Group X: APAP 1000 mg/kg, NAC 100 mg/kg (P), time 22 h) | percentage of surviving animals (Group X: APAP 1000 mg/kg, NAC 100 mg/kg (P), time 24 h) | percentage of surviving animals (Group XIII: APAP 1000 mg/kg, NAC 100 mg/kg (C), time 13 h) | percentage of surviving animals (Group XIV: APAP 1000 mg/kg, NAC 300 mg/kg (C), time 13 h) | percentage of surviving animals (Group XIV: APAP 1000 mg/kg, NAC 300 mg/kg (C), time 14 h) | percentage of surviving animals (Group XIV: APAP 1000 mg/kg, NAC 300 mg/kg (C), time 15 h)
90%: percentage of surviving animals (Group X: APAP 1000 mg/kg, NAC 100 mg/kg (P), time 14 h) | percentage of surviving animals (Group XI: APAP 1000 mg/kg, NAC 200 mg/kg (P), time 11 h) | percentage of surviving animals (Group XI: APAP 1000 mg/kg, NAC 200 mg/kg (P), time 12 h) | percentage of surviving animals (Group XI: APAP 1000 mg/kg, NAC 200 mg/kg (P), time 13 h) | percentage of surviving animals (Group XI: APAP 1000 mg/kg, NAC 200 mg/kg (P), time 14 h) | percentage of surviving animals (Group XI: APAP 1000 mg/kg, NAC 200 mg/kg (P), time 15 h) | percentage of surviving animals (Group XII: APAP 1000 mg/kg, NAC 300 mg/kg (P), time 9 h) | percentage of surviving animals (Group XII: APAP 1000 mg/kg, NAC 300 mg/kg (P), time 10 h) | percentage of surviving animals (Group XII: APAP 1000 mg/kg, NAC 300 mg/kg (P), time 11 h) | percentage of surviving animals (Group XII: APAP 1000 mg/kg, NAC 300 mg/kg (P), time 12 h) | percentage of surviving animals (Group XII: APAP 1000 mg/kg, NAC 300 mg/kg (P), time 13 h) | percentage of surviving animals (Group XII: APAP 1000 mg/kg, NAC 300 mg/kg (P), time 14 h) | percentage of surviving animals (Group XII: APAP 1000 mg/kg, NAC 300 mg/kg (P), time 15 h) | percentage of surviving animals (Group XII: APAP 1000 mg/kg, NAC 300 mg/kg (P), time 16 h) | percentage of surviving animals (Group XII: APAP 1000 mg/kg, NAC 300 mg/kg (P), time 17 h) | percentage of surviving animals (Group XIII: APAP 1000 mg/kg, NAC 100 mg/kg (C), time 8 h) | percentage of surviving animals (Group XIV: APAP 1000 mg/kg, NAC 300 mg/kg (C), time 9 h)
